This note sets out measurements from US12692261B2, “Substituted heterocyclic compounds and therapeutic uses thereof” (Bayer Aktiengesellschaft, priority 2020, dated 2026).

Like-named read-outs stand apart in the source and are kept apart here. A value given as a limit tells only on which side of the number the result lay.

Common to all, as to assay type: biochemical
For test [1], the target named is T1, full-length human CSNK1A1 (Homo sapiens, UniProt P48729).
T1 construct: N-terminal Glutathion-S-Transferase (GST) and full-length human CSNK1A1; purchased Life Technologies PV4174; host or cells: baculovirus infected insect cells
In words: CSNK1A1 Assay 2 (ADP-Glo, 1 μM ATP, substrate biotin-Ahx-KRRRAL-pS-VASLPGL). The following applies: Table 3, read-out: CSNK1A1 Assay 2 IC50 [mol/l] (median). As for the experimental part:
CSNK1A1-inhibitory activity of compounds of the present invention in presence of 1 μM adenosine-tri-phosphate (ATP) was quantified employing the CSNK1A1 assay as described in the following paragraphs. In essence, the enzyme activity is measured by quantification of the adenosine-di-phosphate (ADP), which is generated as a co-product of the enzyme reaction, via the “ADP-Glo™ Kinase Assay” kit from the company Promega. This detection system works as follows: In a first step the ATP not consumed in the kinase reaction is quantitatively converted to cAMP employing an adenylate cyclase (“ADP-Glo-reagent”), then the adenylate cyclase is stopped and the ADP generated in the kinase reaction converted to ATP which generates in a luciferase-based reaction a glow-luminescence signal (“Kinase Detection Reagent”).
(§1) Recombinant fusion protein of N-terminal Glutathion-S-Transferase (GST) and full-length human CSNK1A1, expressed by baculovirus infected insect cells and purified via Glutathion affinity chromatography, was purchased from Life Technologies (product no. PV4174) and used as enzyme. As substrate for the kinase reaction the biotinylated peptide biotin-Ahx-KRRRAL-pS-VASLPGL (C-terminus in amide form) was used which can be purchased e.g. from the company Biosyntan (Berlin-Buch, Germany).
For the assay 50 nl of a 100 fold concentrated solution of the test compound in DMSO was pipetted into a white 1536-well microtiter plate (Greiner Bio-One, Frickenhausen, Germany), 2 μL of a solution of CSNK1A1 in aqueous assay buffer [50 mM HEPES pH 7.5, 10% (v/v) glycerol, 10 mM MgCl2, 50 mM NaCl, 1 mM dithiothreitol, 0.01% (w/v) bovine serum albumin, 0.01% (v/v) Triton X-100] were added and the mixture was incubated for 15 min at 22° C. to allow pre-binding of the test compounds to the enzyme before the start of the kinase reaction. […] The concentration of CSNK1A1 was adjusted depending of the activity of the enzyme lot and was chosen appropriate to have the assay in the linear range, a typical concentrations are about 0.0375 ng/μL. The reaction was stopped by the addition of 2.5 μL of “ADP-Glo-reagent” (1:1.5 fold diluted with water) and the resulting mixture was incubated at 22° C. for 1 h to convert the ATP not consumed in the kinase reaction completely […]. Subsequently 2.5 μL of the “kinase detection reagent” (1.2 fold more concentrated than recommended by the producer) were added, the resulting mixture was incubated at 22° C. for 1 h and then the luminescence measured with a suitable measurement instrument (e.g. Viewlux™ from Perkin-Elmer). The amount of emitted light was taken as a measure for the amount of ADP generated and thereby for the activity of the CSNK1A1.
Background: ADP-Glo first removes unused ATP, then detects ADP through luciferase.

The target in test [2] is T1, full-length human CSNK1A1. In words: CSNK1A1 High ATP Assay (ADP-Glo, 1 mM ATP).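 Also: 30 min kinase reaction at 22 °C with 100 µM peptide substrate.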 As to conditions: Table 3, read-out: CSNK1A1 high ATP assay IC50 [mol/l] (median). As for the experimental part:
CSNK1A1-inhibitory activity of compounds of the present invention in presence of 1 mM adenosine-tri-phosphate (ATP) was quantified employing the CSNK1A1-high-ATP-assay as described in the following paragraphs. In essence, the enzyme activity is measured by quantification of the adenosine-di-phosphate (ADP), which is generated as a co-product of the enzyme reaction, via the “ADP-Glo™ Kinase Assay” kit from the company Promega. This detection system works as follows: In a first step the ATP not consumed in the kinase reaction is quantitatively converted to cAMP employing an adenylate cyclase (“ADP-Glo-reagent”), then the adenylate cyclase is stopped and the ADP generated in the kinase reaction converted to ATP which generates in a luciferase-based reaction a glow-luminescence signal (“Kinase Detection Reagent”).
as §1
For the assay 50 nl of a 100 fold concentrated solution of the test compound in DMSO was pipetted into a white low volume 384-well microtiter plate (Greiner Bio-One, Frickenhausen, Germany), 2 μL of a solution of CSNK1A1 in aqueous assay buffer [50 mM HEPES pH 7.5, 10% (v/v) glycerol, 10 mM MgCl2, 50 mM NaCl, 1 mM dithiothreitol, 0.01% (w/v) bovine serum albumin, 0.01% (v/v) Triton X-100] were added and the mixture was incubated for 15 min at 22° C. to allow pre-binding of the test compounds to the enzyme before the start of the kinase reaction. […] The concentration of CSNK1A1 was adjusted depending of the activity of the enzyme lot and was chosen appropriate to have the assay in the linear range, a typical concentration is about 0.4 ng/μL. The reaction was stopped by the addition of 2.5 μL of “ADP-Glo-reagent” (1:1.5 fold diluted with water) and the resulting mixture was incubated at 22° C. for 1 h to convert the ATP not consumed in the kinase reaction completely […]. Subsequently 2.5 μL of the “kinase detection reagent” (1.2 fold more concentrated than recommended by the producer) were added, the resulting mixture was incubated at 22° C. for 1 h and then the luminescence measured with a suitable measurement instrument (e.g. Viewlux™ from Perkin-Elmer). The amount of emitted light was taken as a measure for the amount of ADP generated and thereby for the activity of the CSNK1A1.

The target of test [3] is T2, wild-type Epidermal Growth Factor Receptor (EGFR) (Homo sapiens, UniProt P00533).
T2 construct: a fragment of human EGFR (amino acids R669 to A1210); made in house; host or cells: Sf9 insect cells
In words: WT-EGFR Kinase Assay (TR-FRET, 2 mM ATP). The text has this: Inhibitory activity of compounds of the present invention against wild-type Epidermal Growth Factor Receptor (EGFR) was quantified employing the TR-FRET based EGFR assay as described in the following paragraphs.
Recombinant fusion protein of N-terminal Glutathion-S-Transferase (GST) and a fragment of human EGFR (amino acids R669 to A1210), expressed in Sf9 insect cells and purified via affinity chromatography using Glutathion Sepharose as described above, was used as kinase. As substrate for the kinase reaction the biotinylated peptide biotin-Ahx-[…] (C-terminus in amide form) was used which can be purchased e.g. form the company Biosynthan GmbH (Berlin-Buch, Germany).
For the assay 50 nl of a 100 fold concentrated solution of the test compound in DMSO was pipetted into either a black low volume 384 well microtiter plate or a black 1536 well microtiter plate (both Greiner Bio-One, Frickenhausen, Germany), 2 μL of a solution of EGFR in aqueous assay buffer [50 mM Hepes pH 7.0, 10 mM MgCl2, 1 mM dithiothreitol, 0.5 mM EGTA, 0.3 mM activated sodium ortho-vanadate, 0.005% (w/v) bovine serum albumin, 0.005% (v/v) Tween-20] were added and the mixture was incubated for 15 min at 22° C. to allow pre-binding of the test compounds to the enzyme before the start of the kinase reaction. […] The concentration of EGFR was adjusted depending of the activity of the enzyme lot and was chosen appropriate to have the assay in the linear range, typical concentration was 7.6 pg/μL. The reaction was stopped by the addition of 3 μL of a solution of HTRF detection reagents (83.3 nM streptavidine-XL665 [Cisbio Bioassays, Codolet, France] and 1.67 nM PT66-Tb-Cryptate, a terbium-cryptate labelled anti-phospho-tyrosine antibody from Cisbio Bioassays [instead of the PT66-Tb-cryptate PT66-Eu-Chelate from Perkin Elmer can also be used]) in an aqueous EDTA-solution (133.3 mM EDTA, 0.2% (w/v) bovine serum albumin in 50 mM HEPES pH 7.5).
The resulting mixture was incubated 1 h at 22° C. to allow the binding of the biotinylated phosphorylated peptide to the streptavidine-XL665 and the PT66-Tb-Cryptate. Subsequently the amount of phosphorylated substrate was evaluated by measurement of the resonance energy transfer from the PT66-Tb-Cryptate to the streptavidine-XL665. Therefore, the fluorescence emissions at 620 nm and 665 nm after excitation at 337 nm were measured in a HTRF reader, e.g. a Pherastar (BMG Labtechnologies, Offenburg, Germany) or a Viewlux (Perkin-Elmer). The ratio of the emissions at 665 nm and at 622 nm was taken as the measure for the amount of phosphorylated substrate.
(TR-FRET usually uses a lanthanide donor and a delayed reading to cut background.)

The mark [4] stands for this setting: EGFR Wildtyp 2 mM ATP IC50 [mol/l] (median), Table 4.

T2 sequence (P00533 669-1210): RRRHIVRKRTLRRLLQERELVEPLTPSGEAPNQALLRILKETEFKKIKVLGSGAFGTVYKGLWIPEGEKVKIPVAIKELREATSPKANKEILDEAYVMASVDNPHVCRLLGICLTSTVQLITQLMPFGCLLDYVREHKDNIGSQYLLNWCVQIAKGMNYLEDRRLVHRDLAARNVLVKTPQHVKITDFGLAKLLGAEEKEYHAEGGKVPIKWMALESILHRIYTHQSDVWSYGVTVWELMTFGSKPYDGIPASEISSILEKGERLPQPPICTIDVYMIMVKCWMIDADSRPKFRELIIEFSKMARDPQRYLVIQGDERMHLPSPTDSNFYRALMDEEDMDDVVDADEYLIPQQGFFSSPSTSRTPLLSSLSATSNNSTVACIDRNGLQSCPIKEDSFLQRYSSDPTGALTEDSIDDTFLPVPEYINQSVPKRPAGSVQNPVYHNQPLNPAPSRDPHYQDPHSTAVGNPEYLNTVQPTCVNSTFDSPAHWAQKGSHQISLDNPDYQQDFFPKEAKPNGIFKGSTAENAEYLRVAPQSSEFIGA
T1 sequence (P48729 whole entry): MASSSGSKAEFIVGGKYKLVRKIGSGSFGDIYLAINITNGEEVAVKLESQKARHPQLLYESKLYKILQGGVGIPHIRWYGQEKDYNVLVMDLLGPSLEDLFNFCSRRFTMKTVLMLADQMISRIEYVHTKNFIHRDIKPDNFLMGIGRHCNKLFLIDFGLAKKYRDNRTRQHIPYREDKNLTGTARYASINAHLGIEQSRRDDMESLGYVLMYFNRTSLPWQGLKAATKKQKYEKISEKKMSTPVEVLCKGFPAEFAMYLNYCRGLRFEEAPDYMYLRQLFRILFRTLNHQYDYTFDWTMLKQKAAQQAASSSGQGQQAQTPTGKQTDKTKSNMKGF

Take `O=C(Nc1cc(-c2[nH]c3c(OCC(F)F)ccnc3c2-c2ccccn2)ccn1)C(CC(F)F)c1ccc(F)cc1` (racemic) [Example 75, (2RS)—N-{4-[7-(2,2-difluoroethoxy)-3-(pyridin-2-yl)-1H-pyrrolo[3,2-b]pyridin-2-yl]pyridin-2-yl}-4,4-difluoro-2-(4-fluorophenyl)butanamide]: the IC50 in test [1] is 4.37 nM; in test [2] it was 4.37 nM; in test [3] (setting [4]) it was greater than 20000 nM.
Consider `O=C(Nc1cc(-c2[nH]c3c(OCC(F)F)ccnc3c2-c2ccccn2)ccn1)C(CC(F)F)c1ccc(F)cc1` (single isomer, unassigned) [Example 77, (2R or S)—N-{4-[7-(2,2-difluoroethoxy)-3-(pyridin-2-yl)-1H-pyrrolo[3,2-b]pyridin-2-yl]pyridin-2-yl}-4,4-difluoro-2-(4-fluorophenyl)butanamide], for which the IC50 in test [1] was 7.2 nM; in test [2], 7.2 nM; in test [3] (read-out: EGFR Wildtyp 2 mM ATP IC50 [mol/l] (median), Table 4) it was greater than 20000 nM.
Take `O=C(Nc1cc(-c2[nH]c3c(OCC(F)F)ccnc3c2-c2ccccn2)ccn1)C(CC(F)F)c1ccc(F)cc1` (single isomer, unassigned) [Example 76, (2R or S)—N-{4-[7-(2,2-difluoroethoxy)-3-(pyridin-2-yl)-1H-pyrrolo[3,2-b]pyridin-2-yl]pyridin-2-yl}-4,4-difluoro-2-(4-fluorophenyl)butanamide]: the figures for the IC50 in test [1], in test [2] and in test [3] (setting [4]) were 2.94 nM, 2.94 nM and greater than 20000 nM, respectively.
